Data from ChEMBL document CHEMBL1201862, “PubChem BioAssay data set” (2004).
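Briefly, cells in 96-well plates were exposed to five compound concentrations for 48 h, and endpoints were estimated by linear interpolation. At the GI50, growth is halved.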 Active and inactive are the calls of the source. No stated cut-off is given here; in the data, active = GI50 up to about 1.1 µM and inactive = higher.

Tests used:
Experiment in all cases: DTP human tumour cell line panel, 48 h
ACHN = tested on: ACHN
SNB-19 = tested on: SNB-19
MOLT-4 = tested on: MOLT-4
SF-295 = tested on: SF-295
U-251 = tested on: U-251
OVCAR-5 = tested on: OVCAR-5
UACC-257 = tested on: UACC-257
SW-620 = tested on: SW-620
SNB-75 = tested on: SNB-75
UO-31 = tested on: UO-31
SK-MEL-5 = tested on: SK-MEL-5
KM-20L2 = tested on: KM-20L2
EKVX = tested on: EKVX
COLO 205 = tested on: COLO 205
SF-539 = tested on: SF-539
A549 = tested on: A549
DMS-114 = tested on: DMS-114
HCC 2998 = tested on: HCC 2998
HCT-116 = tested on: HCT-116
NCI-H23 = tested on: NCI-H23
NCI-H226 = tested on: NCI-H226
LXFL 529 = tested on: LXFL 529
SK-MEL-2 = tested on: SK-MEL-2
SNB-78 = tested on: SNB-78
SK-MEL-28 = tested on: SK-MEL-28
OVCAR-3 = tested on: OVCAR-3
M19-MEL = tested on: M19-MEL
SK-OV-3 = tested on: SK-OV-3
RXF 393 = tested on: RXF 393
DMS-273 = tested on: DMS-273
OVCAR-8 = tested on: OVCAR-8
HOP-92 = tested on: HOP-92
K562 = tested on: K562
TK-10 = tested on: TK-10
SF-268 = tested on: SF-268
786-0 = tested on: 786-0
Malme-3M = tested on: Malme-3M
SN12C = tested on: SN12C
SR = tested on: SR
UACC-62 = tested on: UACC-62
HT-29 = tested on: HT-29
KM12 = tested on: KM12
RPMI-8226 = tested on: RPMI-8226
IGROV-1 = tested on: IGROV-1
HCT-15 = tested on: HCT-15
HL-60 = tested on: HL-60
NCI-H522 = tested on: NCI-H522
LOX IMVI = tested on: LOX IMVI
CCRF-CEM = tested on: CCRF-CEM
HOP-62 = tested on: HOP-62
HOP-18 = tested on: HOP-18
A498 = tested on: A498
MDA-MB-435 = tested on: MDA-MB-435
BT-549 = tested on: BT-549
MDA-MB-231 = tested on: MDA-MB-231
T47D = tested on: T47D
NCI-H460 = tested on: NCI-H460
DU-145 = tested on: DU-145
MCF7 = tested on: MCF7
CAKI-1 = tested on: CAKI-1
PC-3 = tested on: PC-3
NCI/ADR-RES = tested on: NCI/ADR-RES
OVCAR-4 = tested on: OVCAR-4
MDA-N = tested on: MDA-N
M14 = tested on: M14
Hs-578T = tested on: Hs-578T
XF498 = tested on: XF498
DLD-1 = tested on: DLD-1

Measured: GI50

O=c1[nH]c(C2CCCCC2)nc2ccc(Cl)cc12
inactive: ACHN > 100 µM | SNB-19 > 100 µM | MOLT-4 > 100 µM | SF-295 > 100 µM | U-251 > 100 µM | OVCAR-5 > 100 µM | UACC-257 > 100 µM | SW-620 > 100 µM | SNB-75 38.3 µM | UO-31 93.3 µM | SK-MEL-5 > 100 µM | KM-20L2 > 100 µM | EKVX > 100 µM | COLO 205 > 100 µM | SF-539 > 100 µM | A549 > 100 µM | DMS-114 > 100 µM | HCC 2998 > 100 µM | HCT-116 > 100 µM | NCI-H23 > 100 µM | NCI-H226 > 100 µM | LXFL 529 > 100 µM | SK-MEL-2 > 100 µM | SNB-78 > 100 µM | SK-MEL-28 > 100 µM | OVCAR-3 > 100 µM | M19-MEL > 100 µM | SK-OV-3 > 100 µM | RXF 393 > 100 µM | DMS-273 > 100 µM | OVCAR-8 > 100 µM | HOP-92 > 100 µM | K562 > 100 µM | TK-10 > 100 µM | SF-268 > 100 µM | 786-0 > 100 µM | Malme-3M > 100 µM | SN12C > 100 µM | SR > 100 µM | UACC-62 > 100 µM | HT-29 > 100 µM | KM12 > 100 µM | RPMI-8226 > 100 µM | IGROV-1 41.3 µM
> 100 µM: HCT-15

CC1=C[P+](Cc2ccccc2)(c2ccccc2)CC1 (stereo unspecified)
inactive: HL-60 34 µM | NCI-H522 41.7 µM | SNB-19 > 100 µM | UACC-257 41.9 µM | SW-620 > 100 µM | LOX IMVI 90.4 µM | CCRF-CEM > 100 µM | UO-31 > 100 µM | SK-MEL-5 21.5 µM | KM-20L2 75.2 µM | EKVX 54.6 µM | COLO 205 31.6 µM | SF-539 > 100 µM | HOP-62 > 100 µM | DMS-114 46.9 µM | HCT-116 > 100 µM | NCI-H226 > 100 µM | LXFL 529 45.4 µM | SK-MEL-2 > 100 µM | OVCAR-3 44.3 µM | M19-MEL 46.8 µM | HOP-18 > 100 µM | DMS-273 78 µM | UACC-62 63.7 µM | A498 > 100 µM | HT-29 66.4 µM | KM12 > 100 µM | RPMI-8226 25.7 µM | IGROV-1 81.1 µM

CCN1CCC(O)(/C=C/c2ccc(C(C)C)cc2)C(C(=O)/C=C/c2ccc(C(C)C)cc2)C1 (stereo unspecified)
active: LOX IMVI 0.895 µM | RPMI-8226 0.697 µM
2 µM: HCT-15
inactive: HL-60 2.98 µM | MDA-MB-435 2.96 µM | ACHN 1.75 µM | NCI-H522 2.1 µM | SNB-19 3.8 µM | MOLT-4 1.59 µM | SF-295 2.9 µM | U-251 2.61 µM | OVCAR-5 4.34 µM | UACC-257 6.67 µM | BT-549 4.15 µM | MDA-MB-231 1.87 µM | SW-620 2.67 µM | T47D 2.35 µM | SNB-75 4.62 µM | CCRF-CEM 1.16 µM | UO-31 2.96 µM | SK-MEL-5 4.42 µM | EKVX 2.22 µM | COLO 205 2.45 µM | SF-539 2.29 µM | HOP-62 3.52 µM | A549 3.37 µM | HCC 2998 1.81 µM | HCT-116 1.75 µM | NCI-H23 2.38 µM | NCI-H226 2.82 µM | NCI-H460 1.53 µM | SK-MEL-2 3.08 µM | DU-145 3.34 µM | MCF7 2.46 µM | SK-MEL-28 4.51 µM | OVCAR-3 2.84 µM | CAKI-1 4.34 µM | SK-OV-3 14 µM | RXF 393 2.56 µM | PC-3 3.52 µM | OVCAR-8 1.96 µM | HOP-92 1.85 µM | NCI/ADR-RES 3.08 µM | OVCAR-4 3.04 µM | K562 2.72 µM | MDA-N 2.37 µM | TK-10 2.34 µM | SF-268 1.96 µM | 786-0 1.71 µM | Malme-3M 5.02 µM | SN12C 2.47 µM | SR 1.38 µM | UACC-62 4.15 µM | A498 6.38 µM | HT-29 2.24 µM | M14 3.1 µM | Hs-578T 2.31 µM | KM12 1.85 µM | IGROV-1 2.05 µM

O=[N+]([O-])c1nccn1COCCI
> 100 µM: HCT-15
inactive: HL-60 > 100 µM | ACHN > 100 µM | NCI-H522 > 100 µM | SNB-19 > 100 µM | XF498 > 100 µM | MOLT-4 > 100 µM | SF-295 > 100 µM | U-251 > 100 µM | OVCAR-5 > 100 µM | UACC-257 > 100 µM | SW-620 > 100 µM | LOX IMVI > 100 µM | SNB-75 > 100 µM | CCRF-CEM > 100 µM | UO-31 > 100 µM | SK-MEL-5 > 100 µM | KM-20L2 > 100 µM | DLD-1 > 100 µM | EKVX > 100 µM | COLO 205 > 100 µM | SF-539 > 100 µM | HOP-62 > 100 µM | A549 > 100 µM | DMS-114 > 100 µM | HCT-116 > 100 µM | NCI-H23 > 100 µM | NCI-H226 > 100 µM | NCI-H460 > 100 µM | LXFL 529 > 100 µM | SK-MEL-2 > 100 µM | SNB-78 > 100 µM | SK-MEL-28 > 100 µM | OVCAR-3 > 100 µM | M19-MEL > 100 µM | CAKI-1 > 100 µM | SK-OV-3 > 100 µM | DMS-273 > 100 µM | OVCAR-8 > 100 µM | HOP-92 > 100 µM | OVCAR-4 > 100 µM | K562 > 100 µM | TK-10 > 100 µM | SF-268 > 100 µM | 786-0 > 100 µM | Malme-3M > 100 µM | SN12C > 100 µM | SR > 100 µM | UACC-62 > 100 µM | HT-29 > 100 µM | M14 > 100 µM | KM12 > 100 µM | RPMI-8226 > 100 µM | IGROV-1 > 100 µM

COc1cccc(C2c3cc4c(cc3OC(NNC(N)=O)C2C)OCO4)c1O (stereo unspecified)
1.08 µM: HCT-15
inactive: ACHN 3.47 µM | SNB-19 9.14 µM | MOLT-4 1.42 µM | OVCAR-5 6.12 µM | UACC-257 3.42 µM | BT-549 33 µM | MDA-MB-231 3.94 µM | T47D 61 µM | SNB-75 4.33 µM | UO-31 8.39 µM | EKVX 8.26 µM | COLO 205 1.78 µM | HOP-62 1.35 µM | A549 1.92 µM | HCC 2998 1.8 µM | NCI-H23 3.17 µM | NCI-H226 2 µM | DU-145 4.25 µM | SK-MEL-28 1.99 µM | CAKI-1 3.11 µM | SK-OV-3 5.94 µM | PC-3 1.15 µM | OVCAR-8 2.46 µM | NCI/ADR-RES 3.36 µM | OVCAR-4 38.8 µM | TK-10 9.18 µM | SF-268 3.37 µM | 786-0 1.52 µM | SN12C 2.65 µM | SR 1.64 µM | UACC-62 2.54 µM | HT-29 1.7 µM | RPMI-8226 2.32 µM | IGROV-1 2.58 µM
active: HL-60 1.05 µM | MDA-MB-435 0.216 µM | NCI-H522 0.871 µM | SF-295 0.593 µM | U-251 1.07 µM | SW-620 0.569 µM | LOX IMVI 0.933 µM | CCRF-CEM 0.929 µM | SK-MEL-5 0.345 µM | SF-539 0.766 µM | HCT-116 0.834 µM | NCI-H460 0.951 µM | SK-MEL-2 0.703 µM | MCF7 0.491 µM | OVCAR-3 0.783 µM | RXF 393 0.766 µM | HOP-92 0.269 µM | K562 0.516 µM | MDA-N 0.213 µM | Malme-3M 0.745 µM | A498 0.83 µM | M14 0.513 µM | Hs-578T 0.741 µM | KM12 0.731 µM
